Structures are written as SMILES. Values joined by “and” are separate entries in the source; they are usually repeats but may differ in a detail not shown here. Equal entries are not always repeated. Some results are limits rather than exact numbers.

As a reminder, the IC50 is the concentration needed to halve the response being measured. A high value points to weaker potency.

The target in this test is T1, human 5-HT7 receptor (Homo sapiens, UniProt P34969).
T1 construct: expressed in transfected cells; host or cells: CHO cells
T1 sequence (P34969 whole entry): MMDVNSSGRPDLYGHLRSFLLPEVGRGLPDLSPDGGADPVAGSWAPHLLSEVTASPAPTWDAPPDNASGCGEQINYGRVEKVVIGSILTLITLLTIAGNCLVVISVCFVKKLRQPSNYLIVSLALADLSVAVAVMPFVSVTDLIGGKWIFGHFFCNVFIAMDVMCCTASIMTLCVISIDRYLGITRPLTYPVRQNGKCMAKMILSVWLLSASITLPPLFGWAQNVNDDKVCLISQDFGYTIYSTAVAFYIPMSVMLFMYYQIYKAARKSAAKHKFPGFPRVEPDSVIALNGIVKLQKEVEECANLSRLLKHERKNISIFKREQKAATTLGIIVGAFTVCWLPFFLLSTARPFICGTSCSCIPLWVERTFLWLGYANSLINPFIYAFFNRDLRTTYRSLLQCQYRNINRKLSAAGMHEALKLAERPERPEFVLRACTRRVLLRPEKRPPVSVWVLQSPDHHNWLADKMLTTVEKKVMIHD
Nature of the test: 5-HT7 Receptor Binding Assay. The conditions noted are these: membranes of CHO cells expressing human 5-HT7 receptor; 1 nM 3H-5-carboxamidotryptamine; 25° C., 60 minutes. As to the method: 5-HT7 Receptor Binding Assay
Membranes are prepared for binding using the human 5-HT7 receptor expressed in CHO cells. Cells are collected and ruptured using a dounce homogenizer. The cells are spun at 18000× g for 10 minutes and the pellet is resuspended in assay buffer, frozen in liquid nitrogen and kept at −80° C. until the day of the assay.
A total of 30 ug protein is used per well. The assay is carried out in 96-deep-well plates. The assay buffer is 50 mM HEPES. The membrane preparation is incubated at 25° C. for 60 minutes with 0.1 nM to 1000 nM test compound and 1 nM ^3H-5-carboxamidotryptamine. 10 uM serotonin is used as blocking agent to determine non-specific binding. The reaction is terminated by the addition of 1 ml of ice cold 5OmM HEPES buffer and rapid filtration through a Brandel Cell Harvester using Whatman GF/B filters. The filter pads are counted in an LKB Trilux liquid scintillation counter. IC50 values are determined using non-linear regression by Exel-fit.
`CC(Nc1nc(N)nc(NC[C@@H]2C[C@H]2c2ccncc2)n1)c1ccccc1` (mixture of isomers) [(±)-trans-N-(1-Phenyl-ethyl)-N′-(2-pyridin-4-yl-cyclopropylmethyl)-[1,3,5]triazine-2,4,6-triamine] yielded an IC50 of at most 50 nM.

As to `CC(Nc1nc(N)nc(NC[C@@H]2C[C@H]2c2ccccc2F)n1)c1ccccc1` (mixture of isomers) [(±)-trans-N-[2-(2-Fluoro-phenyl)-cyclopropylmethyl]-N′-(1-phenyl-ethyl)-[1,3,5]triazine-2,4,6-triamine], the concentration for half-maximal inhibition (IC50) is ≤ 100 nM and > 50 nM.

For the compound `CC(Nc1nc(N)nc(NC[C@@H]2C[C@H]2c2ccc(F)cc2)n1)c1ccccc1` (mixture of isomers) [(±)-trans-N-[2-(4-Fluoro-phenyl)-cyclopropylmethyl]-N′-(1-phenyl-ethyl)-[1,3,5]triazine-2,4,6-triamine], the IC50 is ≤ 100 nM and > 50 nM.

`C[C@H](Nc1nc(N)nc(NC[C@H]2C[C@@H]2c2ccccc2F)n1)c1ccccc1` [(S,S)-trans-N-[2-(2-Fluoro-phenyl)-cyclopropylmethyl]-N′-(1-phenyl-ethyl)-[1,3,5]triazine-2,4,6-triamine]: the IC50 is at most 50 nM.

`C[C@H](Nc1nc(N)nc(NC[C@H]2C[C@@H]2c2ccc(F)cc2)n1)c1ccccc1` [(S,S)-trans-N-[2-(4-Fluoro-phenyl)-cyclopropylmethyl]-N′-(1-phenyl-ethyl)-[1,3,5]triazine-2,4,6-triamine] came in with an IC50 of at most 50 nM.

In turn, `CC(Nc1ccnc(NCCc2cccnc2)n1)c1ccccc1` (stereo not shown) [Compound 1, N^4-(1-Phenylethyl)-N^2-[2-(3-pyridinyl)ethyl]pyrimidine-2,4-diamine] came in with an IC50 of 101 to 200 nM.

As to `c1ccc(CCNc2nccc(NCc3ccco3)n2)cc1` [Compound 2, N^4-(2-Furanylmethyl)-N^2-(2-phenylethyl)pyrimidine-2,4-diamine], the IC50 lay in the range of 101 to 200 nM.

Compound `CC(Nc1ccnc(NCCc2c[nH]c3ccc(F)cc23)n1)c1ccccc1` (stereo not shown) [Compound 3] had an IC50 of 101 to 200 nM.

Compound `c1ccc(OCCNc2nccc(NCc3ccco3)n2)cc1` [Compound 4, N^4-(2-Furanylmethyl)-N^2-(2-phenoxyethyl)pyrimidine-2,4-diamine] displayed an IC50 of 101 to 200 nM.

`NC(=O)c1cccc(CNc2ccnc(NCCOc3ccccc3)n2)c1` [Compound 6, N^4-[3-(Aminocarbonyl)phenylmethyl]-N^2-(2-phenoxyethyl)pyrimidine-2,4-diamine] had an IC50 of 51 to 100 nM.

`CC(Nc1nccc(NCCc2c[nH]c3ccccc23)n1)c1ccccc1` (stereo not shown) [Compound 7, N^4-[2-(1H-Indol-3-yl)ethyl]-N^2-(1-phenylethyl)pyrimidine-2,4-diamine] gave an IC50 of 51 to 100 nM.

As for `CC(Nc1ccnc(NCCc2cccc(Br)c2)n1)c1ccccc1` (stereo not shown) [Compound 8, N^2-[2-(3-Bromophenyl)ethyl]-N^4-(1-phenylethyl)pyrimidine-2,4-diamine], the IC50 was 51 to 100 nM.

`CC(Nc1ccnc(NCCc2ccc(Br)cc2)n1)c1ccccc1` (stereo not shown) [Compound 9, N^2-[2-(4-Bromophenyl)ethyl]-N^4-(1-phenylethyl)pyrimidine-2,4-diamine]: the half-maximal inhibitory concentration (IC50) was in the range of 51 to 100 nM.

Consider `CC(Nc1ccnc(NC2Cc3ccccc3C2)n1)c1ccccc1` (stereo not shown) [Compound 10, N^2-(Indan-2-yl)-N4-(1-phenylethyl)pyrimidine-2,4-diamine], for which the IC50 lay within 51 to 100 nM.

Compound `c1ccc(CCNc2nccc(NCc3cccnc3)n2)cc1` [Compound 11, N^2-(2-Phenylethyl)-N^4-(3-pyridinylmethyl)pyrimidine-2,4-diamine] returned an IC50 of 51 to 100 nM.

Compound `CC(Nc1ccnc(NCCc2ccccn2)n1)c1ccccc1` (stereo not shown) [Compound 12, N^4-(1-Phenylethyl)-N^2-[2-(2-pyridinyl)ethyl]pyrimidine-2,4-diamine] yielded a half-maximal inhibitory concentration (IC50) of 51 to 100 nM.

The compound `C[C@H](Nc1ccnc(NCCOc2ccccc2)n1)c1ccc(Br)cc1` [Compound 13, N^4-[(1S)-1-(4-Bromophenyl)ethyl]-N^2-(2-phenoxyethyl)pyrimidine-2,4-diamine] had an IC50 of at most 50 nM.

On to `CS(=O)(=O)Nc1cccc(CNc2ccnc(NCCOc3ccccc3)n2)c1` [Compound 14, N^4-{3-[(Methylsulfonyl)amino]phenylmethyl}-N^2-(2-phenoxyethyl)pyrimidine-2,4-diamine], for which the 50% inhibitory concentration (IC50) was at most 50 nM.

`c1ccc(OCCNc2nccc(NCc3cccc4ccccc34)n2)cc1` [Compound 16, N^4-(1-Napthalenylmethyl)-N^2-(2-phenoxyethyl)pyrimidine-2,4-diamine] yielded an IC50 of at most 50 nM.

Consider `C[C@H](Nc1ccnc(NCCOc2ccccc2)n1)c1cccc2ccccc12` [Compound 17, N^4-[(1S)-1-(1-Napthalenyl)ethyl]-N^2-(2-phenoxyethyl)pyrimidine-2,4-diamine], for which the 50% inhibitory concentration (IC50) is at most 50 nM.

Regarding `c1ccc(OCCNc2nccc(NCc3cccs3)n2)cc1` [Compound 18, N^2-(2-Phenoxyethyl)-N^4-(2-thienylmethyl)pyrimidine-2,4-diamine], the IC50 is at most 50 nM.

Compound `c1ccc(OCCNc2nccc(NCc3ccncc3)n2)cc1` [Compound 19, N^2-(2-Phenoxyethyl)-N^4-(4-pyridinylmethyl)pyrimidine-2,4-diamine] showed an IC50 of at most 50 nM.

With `c1ccc(OCCNc2nccc(NCc3cccnc3)n2)cc1` [Compound 20, N^2-(2-Phenoxyethyl)-N^4-(3-pyridinylmethyl)pyrimidine-2,4-diamine], the IC50 is at most 50 nM.

Turning to `CC(Nc1ccnc(NCCc2cccc(O)c2)n1)c1ccccc1` (stereo not shown) [Compound 21, N^2-[2-(3-Hydroxyphenyl)ethyl]-N^4-(1-phenylethyl)pyrimidine-2,4-diamine], the IC50 was at most 50 nM.

Turning to `CC(Nc1ccnc(NCCc2cccc(C#N)c2)n1)c1ccccc1` (stereo not shown) [Compound 22, N^2-[2-(3-Cyanophenyl)ethyl]-N^4-(1-phenylethyl)pyrimidine-2,4-diamine], the IC50 was at most 50 nM.

Compound `CC(Nc1ccnc(NCCC2=CCCCC2)n1)c1ccccc1` (stereo not shown) [Compound 23, N^2-[2-(1-Cyclohexenyl)ethyl]-N^4-(1-phenylethyl)pyrimidine-2,4-diamine] displayed an IC50 of at most 50 nM.

In the case of `C[C@H](Nc1ccnc(NCCc2ccccc2)n1)c1cccc2ccccc12` [Compound 24, N^4-[(1S)-1-(1-Napthalenyl)ethyl]-N^2-(2-phenylethyl)pyrimidine-2,4-diamine], the IC50 is at most 50 nM.

`Ic1cccc(CNc2ccnc(NCCc3ccccc3)n2)c1` [Compound 25, N^4-(3-Iodophenylmethyl)-N^2-(2-phenylethyl)pyrimidine-2,4-diamine] came in with an IC50 of at most 50 nM.

`Brc1cccc(CNc2ccnc(NCCc3ccccc3)n2)c1` [Compound 26, N^4-(3-Bromophenylmethyl)-N^2-(2-phenylethyl)pyrimidine-2,4-diamine] had an IC50 of at most 50 nM.

Consider `c1ccc(CCNc2nccc(NCc3cccs3)n2)cc1` [Compound 27, N^2-(2-Phenylethyl)-N^4-(2-thienylmethyl)pyrimidine-2,4-diamine], for which the IC50 is at most 50 nM.

For the compound `CC(Nc1ccnc(NCCn2ccc3ccccc32)n1)c1ccccc1` (stereo not shown) [Compound 28, N^2-[2-(1H-Indol-1-yl)ethyl]-N^4-(1-phenylethyl)pyrimidine-2,4-diamine], the IC50 was at most 50 nM.

In turn, `CC(Nc1ccnc(NCCc2cccs2)n1)c1ccccc1` (stereo not shown) [Compound 29, N^4-(1-Phenylethyl)-N^2-[2-(2-thienyl)ethyl]pyrimidine-2,4-diamine] returned an IC50 of at most 50 nM.

`CC(Nc1ccnc(N(C)CCc2c[nH]c3ccccc23)n1)c1ccccc1` (stereo not shown) [Compound 30, N^2-[2(1H-Indol-3-yl)ethyl]-N^2-(methyl)-N^4-(1-phenylethyl)pyrimidine-2,4-diamine] returned an IC50 of at most 50 nM.

The compound `CC(Nc1ccnc(NCCc2c[nH]c3cc(F)ccc23)n1)c1ccccc1` (stereo not shown) [Compound 31, N^2-[2-(6-Fluoro-1H-indol-3-yl)ethyl]-N^4-(1-phenylethyl)pyrimidine-2,4-diamine] returned an IC50 of at most 50 nM.

In the case of `CC[C@H](Nc1nc(N)nc(NCCc2ccc(Cl)cc2)n1)c1ccccc1` [Compound 32, N^2-[2-(4-Chlorophenyl)ethyl]-N^4-[(1S)-1-phenylpropyl]-1,3,5-triazine-2,4,6-triamine], the IC50 was 101 to 200 nM.

The compound `CC[C@H](Nc1nc(N)nc(NCCc2ccc(Cl)c(Cl)c2)n1)c1ccccc1` [Compound 33, N^2-[2-(3,4-Dichlorophenyl)ethyl]-N^4-[(1S)-1-phenylpropyl]-1,3,5-triazine-2,4,6-triamine] had an IC50 of 101 to 200 nM.

`Cc1ccc(CCNc2nc(N)nc(N[C@@H](C)c3ccc(Br)cc3)n2)cc1` [Compound 34, N^2-[(1S)-1-(4-Bromophenyl)ethyl]-N^4-[2-(4-methylphenyl)ethyl]-1,3,5-triazine-2,4,6-triamine] came in with an IC50 of 101 to 200 nM.

The compound `CC[C@H](Nc1nc(N)nc(NCC(C)c2ccccc2)n1)c1ccccc1` (stereo partly drawn) [Compound 35, N^2-[(1S)-1-Phenylpropyl]-N^4-(2-phenylpropyl)-1,3,5-triazine-2,4,6-triamine] registered an IC50 of 101 to 200 nM.

`CC[C@H](Nc1nc(N)nc(NCCc2cccc(C(F)(F)F)c2)n1)c1ccccc1` [Compound 36, N^2-[(1S)-1-Phenylpropyl]-N^4-[2-(3-(trifluoromethyl)phenyl)ethyl]-1,3,5-triazine-2,4,6-triamine] returned an IC50 of 101 to 200 nM.

In the case of `CC(CNc1nc(N)nc(N[C@@H](C)c2ccccc2)n1)c1ccccc1` (stereo partly drawn) [Compound 37, N^2-[(1S)-1-Phenylethyl]-N^4-(2-phenylpropyl)-1,3,5-triazine-2,4,6-triamine], the IC50 fell in the range of 101 to 200 nM.

Source of the values: US6630469B2, “5-HT7 receptor antagonists” (Bristol-Myers Squibb Company, priority 2000, dated 2003).
